The results in this text go back to ChEMBL document CHEMBL1201862, “PubChem BioAssay data set” (2004).

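Step 1: Grow cells in 96-well plates. Step 2: Expose to compound for 48 hours at 5 concentrations. Step 3: Interpolate endpoints linearly; if unreached, use highest concentration. Abbreviation: GI50, concentration required for 50% inhibition of growth.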 The source made the active and inactive calls. No stated cut-off is given here; in the data, active = GI50 up to about 1.1 µM and inactive = higher. Where only a bound is given, the exact number is not on record here.

Among the test systems are BT-549; CCRF-CEM; COLO 205; HCT-116; HCT-15; HOP-62; K562; MDA-MB-435; Malme-3M; NCI/ADR-RES; OVCAR-5; OVCAR-8; PC-3; SNB-19; T47D; U-251; UACC-62; UO-31; HCC 2998; NCI-H23.
Common to all, as to experiment: NCI-60 cell line screen, 48 h

For the molecule `COc1ccc(/C=C/C(=O)c2nc3ccccc3[nH]2)cc1`, the GI50 with BT-549 is 22.5 µM (inactive); in the experiment on CCRF-CEM, > 100 µM (inactive); in the experiment on COLO 205, 13.2 µM (inactive); with HCT-116 it was 5.37 µM (inactive); with HCT-15 it was 10.9 µM; in the experiment with HOP-62, 25.4 µM (inactive). Moreover, the GI50 in the experiment with K562 is 4.88 µM (inactive); with MDA-MB-435, 11.7 µM (inactive); in the experiment on Malme-3M, 19 µM (inactive); in the experiment on NCI/ADR-RES, 18.2 µM (inactive); in the experiment on OVCAR-5 it was 22 µM (inactive); with OVCAR-8 it was 21 µM (inactive). Besides, the GI50 with PC-3 was 21.8 µM (inactive); in the experiment on SNB-19, 24.2 µM (inactive); with T47D, 10.7 µM (inactive); in the experiment on U-251, 13.8 µM (inactive); with UACC-62, 17.6 µM (inactive); in the experiment on UO-31 it was 15.7 µM (inactive).

For the molecule `CCOC(=O)CCC(NC(=O)c1ccc(OCc2ccc3nc(OC)c(OC)nc3c2)cc1)C(=O)OCC` (configuration not stated), the GI50 is 43.3 µM (inactive) in the experiment on BT-549; 24 µM (inactive) with CCRF-CEM; 16.7 µM (inactive) with COLO 205; 50.1 µM (inactive) in the experiment with HCC 2998; 50.7 µM (inactive) with HCT-116; 75.5 µM in the experiment on HCT-15. In addition, the GI50 in the experiment with HOP-62 is > 100 µM (inactive); in the experiment on K562, 22.3 µM (inactive); in the experiment on MDA-MB-435, 27.3 µM (inactive); with Malme-3M, 21.4 µM (inactive); in the experiment with NCI-H23 it was > 100 µM (inactive); in the experiment on OVCAR-5 it was > 100 µM (inactive). The GI50 with OVCAR-8 was > 100 µM (inactive); with PC-3 it was 36.4 µM (inactive); in the experiment on SNB-19, 74.3 µM (inactive); in the experiment on T47D, 31.7 µM (inactive); in the experiment with U-251, > 100 µM (inactive); in the experiment with UACC-62, 30.4 µM (inactive). In addition, the GI50 in the experiment with UO-31 was 64.6 µM (inactive).

For `CC(C)(C)OC(=O)NCCCC(=O)NC1(c2cc3ccccc3s2)CCCCC1`, the GI50 in the experiment with BT-549 is 15.1 µM (inactive); in the experiment on CCRF-CEM, 11.4 µM (inactive); in the experiment with COLO 205 it was 13.8 µM (inactive); with HCC 2998, 21.6 µM (inactive); in the experiment with HCT-116 it was 14 µM (inactive); in the experiment with HCT-15, 15.6 µM. For the same molecule, the GI50 in the experiment on HOP-62 is 21.4 µM (inactive); with K562, 19.5 µM (inactive); with MDA-MB-435, 15.4 µM (inactive); in the experiment with Malme-3M it was 16.2 µM (inactive); in the experiment on NCI-H23, 27.2 µM (inactive); with NCI/ADR-RES, 16.7 µM (inactive). For the same molecule, the GI50 with OVCAR-8 was 19 µM (inactive); with SNB-19, 34.8 µM (inactive); in the experiment with T47D it was 9.66 µM (inactive); with UACC-62 it was 10.8 µM (inactive); in the experiment on UO-31, 4.61 µM (inactive).

As for `CC(C)/C(Cl)=N\OC(=O)Nc1ccc(S(N)(=O)=O)cc1`, the GI50 in the experiment with BT-549 is 2.75 µM (inactive); with CCRF-CEM, 1.75 µM (inactive); with COLO 205 it was 1.98 µM (inactive); with HCC 2998, 18 µM (inactive); in the experiment on HCT-116, 13.5 µM (inactive); with HCT-15, 16.6 µM. The GI50 was > 42.6 µM (inactive) in the experiment with HOP-62; 2.79 µM (inactive) in the experiment on K562; 4.59 µM (inactive) in the experiment on Malme-3M; 19.2 µM (inactive) in the experiment with NCI-H23; 18.7 µM (inactive) in the experiment with NCI/ADR-RES; 18.3 µM (inactive) with OVCAR-5. Moreover, the GI50 in the experiment with OVCAR-8 was 17.9 µM (inactive); in the experiment with PC-3, 18.5 µM (inactive); in the experiment with SNB-19, > 53.2 µM (inactive); with T47D it was 22.6 µM (inactive); in the experiment on U-251, 19.5 µM (inactive); with UACC-62, 17.9 µM (inactive). In addition, the GI50 with UO-31 was 16.6 µM (inactive).

Take `Cc1cn(C2CC(OC(=O)c3ccc(Cl)cc3)C(COC(=O)c3ccc(Cl)cc3)O2)c(=O)[nH]c1=O` (configuration not stated): the GI50 with BT-549 is > 100 µM (inactive); with CCRF-CEM, > 100 µM (inactive); in the experiment on COLO 205, > 100 µM (inactive); with HCT-116, > 100 µM (inactive); in the experiment with HCT-15 it was over 100 µM; in the experiment on HOP-62, > 100 µM (inactive). The GI50 in the experiment on K562, in the experiment on MDA-MB-435, in the experiment on Malme-3M, in the experiment on NCI-H23, with NCI/ADR-RES and in the experiment with OVCAR-5 was > 100 µM (inactive) each time. Further, the GI50 with OVCAR-8, with PC-3, in the experiment with SNB-19, with T47D, in the experiment with U-251 and with UACC-62 was > 100 µM (inactive) each time. For the same molecule, the GI50 in the experiment with UO-31 was > 100 µM (inactive).

As to `CCOC(=O)C(NC(=O)c1ccccc1)(N1CCN(c2cc3c(cc2F)c(=O)c(C(=O)O)cn3C2CC2)CC1)C(F)(F)F` (configuration not stated), the GI50 in the experiment on BT-549 was 21.8 µM (inactive); in the experiment on CCRF-CEM it was 3.37 µM (inactive); with COLO 205 it was 17.1 µM (inactive); in the experiment with HCC 2998, 22.5 µM (inactive); with HCT-116 it was 17.1 µM (inactive); in the experiment with HOP-62, 31 µM (inactive). Further, the GI50 is 20.2 µM (inactive) in the experiment with K562; 21.1 µM (inactive) in the experiment on MDA-MB-435; 20.2 µM (inactive) with Malme-3M; 15.1 µM (inactive) with NCI-H23; 20.4 µM (inactive) in the experiment with OVCAR-5; 31.3 µM (inactive) in the experiment on OVCAR-8. For the same molecule, the GI50 was 23.6 µM (inactive) in the experiment with PC-3; 29.2 µM (inactive) in the experiment on SNB-19; 20.6 µM (inactive) in the experiment with T47D; 29.9 µM (inactive) with U-251; 22 µM (inactive) in the experiment on UACC-62; 23 µM (inactive) in the experiment with UO-31.

Turning to `CC(=O)Nc1ccc2c(C(=O)O)c(C)c(O)nc2n1`, the GI50 in the experiment with BT-549 was > 100 µM (inactive); in the experiment on CCRF-CEM it was > 10 µM (inactive); in the experiment on COLO 205, > 100 µM (inactive); in the experiment with HCT-116 it was 71.3 µM (inactive); in the experiment on HCT-15, over 100 µM; in the experiment on K562, 59.8 µM (inactive). Also, the GI50 in the experiment with MDA-MB-435 was > 100 µM (inactive); with Malme-3M, 95.7 µM (inactive); in the experiment on NCI-H23, > 100 µM (inactive); with NCI/ADR-RES it was > 100 µM (inactive); with OVCAR-5 it was > 100 µM (inactive); in the experiment with OVCAR-8, 83.4 µM (inactive). The GI50 was > 100 µM (inactive) in the experiment with PC-3; 25.5 µM (inactive) in the experiment with SNB-19; 89.7 µM (inactive) in the experiment with T47D; 46.9 µM (inactive) in the experiment with U-251; > 100 µM (inactive) in the experiment with UACC-62; > 100 µM (inactive) with UO-31.

In the case of `COc1cc(Cl)c(CC(=O)c2c[nH]c3ccccc23)cc1OC`, the GI50 with BT-549 is 28.2 µM (inactive); in the experiment on CCRF-CEM it was > 34.6 µM (inactive); with COLO 205, > 100 µM (inactive); with HCT-116, 98.6 µM (inactive); with HCT-15 it was over 100 µM; in the experiment on HOP-62 it was 5.3 µM (inactive). Also, the GI50 with K562 was > 49.2 µM (inactive); in the experiment with MDA-MB-435, > 100 µM (inactive); in the experiment on Malme-3M it was > 100 µM (inactive); with NCI-H23, > 42.5 µM (inactive); in the experiment on NCI/ADR-RES it was > 81.7 µM (inactive); in the experiment with OVCAR-5, > 100 µM (inactive). The GI50 in the experiment on OVCAR-8 was 8.55 µM (inactive); in the experiment on PC-3, > 100 µM (inactive); in the experiment with SNB-19 it was 13.4 µM (inactive); in the experiment with T47D, > 28.5 µM (inactive); with U-251, 8.38 µM (inactive); with UACC-62, > 100 µM (inactive).

`N#Cc1c2c(c(Nc3cccc(C(F)(F)F)c3)n3c1nc1ccccc13)CCCC2`: the GI50 was 30.1 µM (inactive) in the experiment with BT-549; > 100 µM (inactive) in the experiment on COLO 205; 22.3 µM (inactive) in the experiment with HCT-116; 39.2 µM with HCT-15; 16 µM (inactive) with HOP-62; 28.4 µM (inactive) in the experiment with MDA-MB-435. For the same molecule, the GI50 with Malme-3M was 21.3 µM (inactive); with NCI-H23 it was 20.9 µM (inactive); in the experiment with NCI/ADR-RES it was 14.8 µM (inactive); in the experiment on OVCAR-5, 18.9 µM (inactive); with OVCAR-8, 15.1 µM (inactive); with T47D it was > 100 µM (inactive). Also, in the experiment on U-251, the GI50 was 11.5 µM (inactive).

For `Cn1c2ccccc2c2c(-c3ccccc3)[n+]3ccccc3nc21`, the GI50 with BT-549 is 23 µM (inactive); in the experiment with CCRF-CEM it was 30.5 µM (inactive); in the experiment with COLO 205 it was 43.1 µM (inactive); in the experiment on HCT-15 it was over 100 µM; in the experiment on HOP-62 it was 22.5 µM (inactive); with K562, 34 µM (inactive). Besides, the GI50 is 20.6 µM (inactive) in the experiment with MDA-MB-435; 24.3 µM (inactive) with Malme-3M; 23.2 µM (inactive) in the experiment on NCI-H23; > 100 µM (inactive) in the experiment on NCI/ADR-RES; 50.9 µM (inactive) with OVCAR-5; 36.3 µM (inactive) with OVCAR-8. In addition, the GI50 in the experiment with PC-3 was 26.2 µM (inactive); in the experiment on SNB-19, 65.8 µM (inactive); with T47D, 51.5 µM (inactive); in the experiment with U-251, 24.8 µM (inactive); in the experiment with UACC-62, 21.2 µM (inactive); in the experiment with UO-31, > 100 µM (inactive).

With `COc1cc(C2c3cc4c(cc3C3OC[C@@H]2C3CO)OCO4)cc(OC)c1OC` (some centres not stated), the GI50 in the experiment on BT-549 is 29.9 µM (inactive); in the experiment on CCRF-CEM it was 23.4 µM (inactive); in the experiment with COLO 205, 18.4 µM (inactive); in the experiment on HCT-15, 23.3 µM; with K562 it was 24.9 µM (inactive); with MDA-MB-435, 6.81 µM (inactive). Further, the GI50 in the experiment with Malme-3M is 67.6 µM (inactive); in the experiment with NCI/ADR-RES, 20.1 µM (inactive); with OVCAR-5, 60.5 µM (inactive); in the experiment on OVCAR-8 it was 40.7 µM (inactive); with PC-3, 49.3 µM (inactive); in the experiment with SNB-19, 57.3 µM (inactive). For the same molecule, the GI50 in the experiment with T47D is > 100 µM (inactive); with U-251, 34.7 µM (inactive); in the experiment with UO-31 it was 45.4 µM (inactive).
